Source: patent publication US9868737B2, “Pyridino[1,2-A]pyrimidone analogue used as MTOR/P13K inhibitor” (CISEN PHARMACEUTICAL CO., LTD., priority 2014, dated 2018)
Where two headings read alike, the source gives them in different places.

System: MCF-7 cells
Assay: In vitro test of cell activity (MCF-7 cells, insulin stimulation, ELISA-One fluorescence)
Format: cell-based
Details: for inhibition at 0.5 µM: conc. 0.5 μM; for inhibition at 1 µM: conc. 1 μM; for inhibition at 0.25 µM: conc. 0.25 μM
Method in brief: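 Fluorescence ELISA-One read-out on cell lysates, antibody-captured 1 h at room temperature. Before lysis, MCF-7 cells (2.5×10^4/well) were pretreated 2 h with compound in serum-free medium, single dose for screening or a dilution series for IC50, then stimulated 30 min with insulin ([…] final).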

[1] = Homo sapiens, MCF7, MCF-7 cells, read-out: IC50 p-AKT
[2] = Homo sapiens, MCF7, MCF-7 cells, read-out: % inhibition AKT
[3] = Homo sapiens, MCF7, MCF-7 cells, read-out: % inhibition p70s6k
[4] = Homo sapiens, MCF7, MCF-7 cells, read-out: IC50 p-p70S6K

IC50 [1] [nM] | IC50 [4] [nM] | SMILES | inhibition at 0.5 µM [2] [%] | inhibition at 0.5 µM [3] [%] | other results
≤ 50 | – | COCCOc1cnc2ccc(-c3cnc(OC)c(NS(=O)(=O)c4ccc(C)nc4C)c3)cn2c1=O [compound 192] | – | – | –
– | – | COc1ncc(-c2cn3c(=O)ccnc3cc2C)cc1NS(=O)(=O)c1ccc(F)cc1Cl [compound 128] | -1.1 | 0.4 | –
– | – | COc1ncc(-c2ccc3nc(C)cc(=O)n3c2)cc1NS(=O)(=O)c1ccc(F)cc1C [compound 229] | 31.7 | 1.4 | –
≤ 50 | – | COc1ncc(-c2ccc3ncc(OC)c(=O)n3c2)cc1NS(=O)(=O)c1sc(N)nc1C [compound 109] | – | – | –
50 to 100 | – | COc1ncc(-c2ccc3ncc(OCCO)c(=O)n3c2)cc1NS(=O)(=O)c1ccc(F)cc1F [compound 178] | – | – | –
50 to 100 | 100 to 250 | COc1ccc(S(=O)(=O)Nc2cc(-c3ccc4nccc(=O)n4c3)cnc2OC)cc1 [compound 24] | – | – | inhibition at 1 µM [2]: 94.6%; inhibition at 1 µM [3]: 93.2%
≤ 50 | – | COc1ncc(-c2ccc3ncc(OCCOC4CC4)c(=O)n3c2)cc1NS(=O)(=O)c1sc(C)nc1C [compound 204] | – | – | –
≤ 50 | ≤ 50 | COc1ncc(-c2ccc3ncc(F)c(=O)n3c2)cc1NS(=O)(=O)c1ccccc1Cl [compound 63] | 89.5 | 92.9 | –
– | – | COc1ncc(-c2cn3c(=O)ccnc3cn2)cc1NS(=O)(=O)c1cc(F)ccc1F [compound 41] | -10.1 | 0.1 | –
– | – | COc1ncc(-c2cn3c(=O)ccnc3cc2F)cc1NS(=O)(=O)c1cccc(F)c1 [compound 115] | 43.6 | 6.5 | –
≤ 50 | ≤ 50 | COc1ncc(-c2ccc3ncc(F)c(=O)n3c2)cc1NS(=O)(=O)c1ccccc1F [compound 64] | 87.8 | 91.7 | –
≤ 50 | – | COc1ncc(-c2ccc3ncc(OC)c(=O)n3c2)cc1NS(=O)(=O)c1sc(C)nc1C [compound 111] | – | – | –
– | – | COc1ncc(-c2ccc3ncc(OC4CCC(OC)CC4)c(=O)n3c2)cc1NS(=O)(=O)c1sc(C)nc1C (stereo not drawn) [compound 208] | – | – | IC50 (MCF-7 cells, read-out: IC50 p-AKT): ≤ 50 nM
≤ 50 | – | COCCOc1cnc2ccc(-c3cnc(OC)c(NS(=O)(=O)c4cc(Cl)ccc4F)c3)cn2c1=O [compound 272] | – | – | –
– | – | O=c1ccnc2ccc(-c3cnc(Cl)c(NS(=O)(=O)N4CCOCC4)c3)cn12 [compound 31] | – | – | inhibition at 1 µM [2]: 67.8%; inhibition at 1 µM [3]: 45.5%
– | – | COc1ncc(-c2ccc3ncc(Cl)c(=O)n3c2)cc1NS(=O)(=O)c1ccc(F)cc1 [compound 146] | – | – | inhibition at 0.25 µM [2]: 77.6%; inhibition at 0.25 µM [3]: 83.7%
– | – | COc1ncc(-c2ccc3nccc(=O)n3c2)nc1NS(=O)(=O)c1ccc(F)cc1F [compound 33] | -40.9 | 0.8 | –
100 to 250 | 100 to 250 | COc1ncc(-c2ccc3ncc(Cl)c(=O)n3c2)cc1NS(=O)(=O)c1c(C)noc1C [compound 166] | – | – | inhibition at 0.25 µM [2]: 66.5%; inhibition at 0.25 µM [3]: 89.2%
≤ 50 | – | COc1ncc(-c2ccc3ncc(OCCO)c(=O)n3c2)cc1NS(=O)(=O)c1sc(C)nc1C [compound 180] | – | – | –
≤ 50 | 100 to 250 | COc1ncc(-c2ccc3nccc(=O)n3c2)cc1NS(=O)(=O)c1ccc(Cl)cc1 [compound 23] | – | – | inhibition at 1 µM [2]: 95.7%; inhibition at 1 µM [3]: 93.9%

IC50 [1] [nM] | IC50 [4] [nM] | SMILES | inhibition at 0.5 µM [2] [%] | inhibition at 0.5 µM [3] [%] | other results
– | – | COc1ncc(-c2ccc3nccc(=O)n3c2C)cc1NS(=O)(=O)c1ccc(F)cc1C [compound 57] | 58.6 | 47.2 | –
– | – | COc1ncc(-c2cn3c(=O)ccnc3cc2C)cc1NS(=O)(=O)c1ccc(F)cc1F [compound 121, 2,4-difluoro-N-(2-methoxy-5-(8-methyl-4-oxo-4H-pyrido[1,2-a]pyrimidin-7-yl)pyridin-3-yl)benzsulfamide] | -27.1 | -2.2 | –
– | – | COc1ncc(-c2cn3c(=O)ccnc3cn2)cc1NS(=O)(=O)c1c(F)cccc1F [compound 46] | 60.3 | 13.3 | –
– | – | COc1ncc(-c2ccc3nccc(=O)n3n2)cc1NS(=O)(=O)c1ccc(C#N)cc1 [compound 77] | 50 | 4.8 | –
≤ 50 | 100 to 250 | COc1ncc(-c2ccc3ncc(N)c(=O)n3c2)cc1NS(=O)(=O)c1ccc(F)cc1C [compound 89] | 93 | 88.1 | –
100 to 250 | 100 to 250 | COc1ncc(-c2ccc3ncc(-n4ccc(C)n4)c(=O)n3c2)cc1NS(=O)(=O)c1sc(C)nc1C [compound 218] | – | – | inhibition at 0.25 µM [2]: 85.2%; inhibition at 0.25 µM [3]: 85%
100 to 250 | > 250 | COc1ncc(-c2ccc3nccc(=O)n3c2)cc1NS(=O)(=O)c1ccccc1F [compound 2] | – | – | inhibition at 1 µM [2]: 94.2%; inhibition at 1 µM [3]: 50.8%
≤ 50 | 50 to 100 | COc1ncc(-c2ccc3ncc(F)c(=O)n3c2)cc1NS(=O)(=O)c1c(F)cccc1F [compound 68] | 88 | 90.3 | –
100 to 250 | – | CNc1cnc2ccc(-c3cnc(OC)c(NS(=O)(=O)c4ccc(F)cc4F)c3)cn2c1=O [compound 95, 2,4-difluoro-N-(2-methoxy-5-(3-(methylamino)-4-oxo-4H-pyrido[1,2-a]pyrimidin-7-yl)pyridin-3-yl)benzulfamide] | – | – | –
≤ 50 | 100 to 250 | COc1ncc(-c2ccc3ncc(Cl)c(=O)n3c2)cc1NS(=O)(=O)c1ccc(F)c(F)c1 [compound 145] | 94.9 | 90.5 | –
50 to 100 | 100 to 250 | COc1ncc(-c2ccc3ncc(Cl)c(=O)n3c2)cc1NS(=O)(=O)c1ncc(C)s1 [compound 162] | – | – | inhibition at 0.25 µM [2]: 77.8%; inhibition at 0.25 µM [3]: 64.9%
≤ 50 | 50 to 100 | COc1ncc(-c2ccc3ncc(F)c(=O)n3c2)cc1NS(=O)(=O)c1ccc(F)cc1Cl [compound 62] | 90.2 | 90.8 | –
100 to 250 | – | COc1ncc(-c2ccc3n[nH]c(=O)n3c2)cc1NS(=O)(=O)c1ccc(F)cc1F [compound 235] | – | – | –
50 to 100 | – | COCCOc1cnc2ccc(-c3cnc(OC)c(NS(=O)(=O)c4ccc(F)cc4Cl)c3)cn2c1=O [compound 213] | – | – | –
50 to 100 | 100 to 250 | COc1ncc(-c2ccc3nccc(=O)n3c2)cc1NS(=O)(=O)c1ccccc1 [compound 12] | – | – | inhibition at 1 µM [2]: 95.4%; inhibition at 1 µM [3]: 91.5%
≤ 50 | 100 to 250 | COc1ncc(-c2ccc3ncc(C)c(=O)n3c2)cc1NS(=O)(=O)c1ccc(Cl)cc1F [compound 82] | 92.1 | 88.1 | –
– | – | COc1ncc(-c2ccc3nc(C)cc(=O)n3c2)cc1NS(=O)(=O)c1ccc(F)cc1F [compound 221, 2,4-difluoro-N-(2-methoxy-5-(2-methyl-4-oxo-4H-pyrido[1,2-a]pyrimidin-7-yl)pyridin-3-yl)benzsulfamide] | – | – | inhibition at 0.25 µM [2]: -42%; inhibition at 0.25 µM [3]: 6.8%
≤ 50 | > 250 | O=c1ccnc2ccc(-c3cnc(Cl)c(NS(=O)(=O)c4ccccc4F)c3)cn12 [compound 19] | – | – | inhibition at 1 µM [2]: 91.2%; inhibition at 1 µM [3]: 74.1%
≤ 50 | ≤ 50 | COc1ncc(-c2ccc3ncc(OC)c(=O)n3c2)cc1NS(=O)(=O)c1ccccc1Cl [compound 105] | 95.4 | 90.3 | –
